The values that follow come from article PMC10992699, “Comparative structure activity and target exploration of 1,2-diphenylethynes in Haemonchus contortus and Caenorhabditis elegans” (International Journal for Parasitology: Drugs and Drug …, 2024).

In one experiment the test system is H. contortus xL3s. Put plainly: H. contortus xL3 motility dose-response assay. The class given is cell-based, Haemonchus contortus. As to the method:
Immediately prior to use in assays, H. contortus L3s were exsheathed via exposure to 0.15 % (v/v) sodium hypochlorite for 20 min at 38 °C ([Preston et al., 2015]), achieving an exsheathment rate of 90 %. The larvae were then immediately washed five times with 50 mL of sterile physiological saline (pH 7.0) by centrifugation at 2000×g (5 min) and resuspended (at a concentration of 300 xL3s per 50 μL) in sterile (autoclaved) lysogeny broth (LB; cf. [Bertani, 1951]; [Taki et al., 2021b]), supplemented with final concentrations of 100 IU/mL of penicillin, 100 μg/mL of streptomycin and 0.25 μg/mL of amphotericin B (Fungizone®, cat. No. 15240-062, Gibco, Thermo Fisher Scientific, Waltham, MA, USA); this supplemented LB was designated LB*.
The dose-response assay for H. contortus followed a well-established protocol ([Taki et al., 2021b]); it was employed to evaluate the potency of hit compounds against this nematode. Test compounds were assessed individually for an effect on the motility of xL3s (10-point, 2-fold serial dilution in LB*, 40 μM–[…]). […] A solution of LB* was used as a negative control. The test compounds and positive control compounds (monepantel and moxidectin) were arrayed in triplicate across individual flat-bottom 96-well microplates, with six wells on each plate containing the negative control. Added to each well were 300 xL3s of H. contortus in 50 μL of LB* to give a final volume of 100 μL. Plates were then placed in a CO2 incubator (10 % (v/v) CO2, 38 °C, >90 % humidity; Forma, model no. 311, Thermo Fisher Scientific, USA). […] Over a period of 15 min, disturbance of an infrared beam in individual wells was recorded as an ‘activity count’. Raw ‘activity counts’ for individual wells were normalised to the negative-controls. The compound concentrations were log10-transformed and fitted using a variable slope four-parameter equation, using the ordinary least squares fit model, employing Prism (v.9.1.0 GraphPad Software, San Diego, CA, USA). Larval development was established at 168 h of incubation with compound, as described previously ([Preston et al., 2015]). The phenotypes of larvae were examined using a microscope ([Preston et al., 2015]) and recorded.

Another experiment deals with C. elegans young adults. Put plainly: C. elegans young adult motility dose-response assay. The conditions noted are these: young adults, 40 h incubation, three independent assays in triplicate. The class given is cell-based, Caenorhabditis elegans. As to the method:
The eggs were then washed five times with 15 mL of sterile M9 buffer (centrifugation at 500×g, 2 min). […] were collected from plates and washed twice with sterile M9 buffer by centrifugation (500×g, 2 min) to remove E. coli OP50, and then resuspended to a concentration of 100 larvae per 50 μL in sterile (autoclaved) LB*. The dose-response assay for C. elegans followed a well-established protocol ([Taki et al., 2021a]) and was employed to evaluate the potency of hit compounds against this nematode. […] Two compounds, monepantel (ZolvixTM; Elanco, Australia) and moxidectin ([…], France) were used as positive controls and prepared in the same manner as the test compounds. […] The test compounds and positive control compounds were arrayed in triplicate across individual flat-bottom 96-well microplates (cat. no. 3596; Corning, Corning, NY, USA), with six wells on each plate containing the negative control. Added to each well were 100 C. elegans in 50 μL of LB* to give a final volume of 100 μL. Plates were then placed in an incubator ([…], model no. IMP180, Thermo Fisher Scientific, USA) at 20 °C for 40 h. […] Over 15 min, disturbance of an infrared beam in individual wells was recorded as an 'activity count'. Raw 'activity counts' for each well were normalised to the negative controls. The compound concentrations were log10-transformed and fitted using a variable slope four-parameter equation, using the ordinary least squares fit model, employing the program Prism (v.9.1.0 GraphPad Software, San Diego, CA, USA).

The test system of experiment [1] is adult females of Haemonchus contortus. Put plainly: Motility of adult female H. contortus in vitro. The format is cell-based. The conditions noted are these: 40 μM. As to the method:
Adult H. contortus were collected from the abomasa of sheep infected for 10 weeks, washed extensively with phosphate-buffered saline (PBS, pH 7.4) and subsequently in RPMI 1640 media supplemented with final concentrations of 2 mM L-glutamine, 100 IU/mL of penicillin, 100 μg/mL of streptomycin and 0.25 μg/mL of amphotericin B (Thermo Fisher Scientific, Scoresby, VIC, Australia; this supplemented RPMI was designated RPMI*). Female and male worms were collected and separated immediately prior to compound testing.
The activity of UMW-9729 and six derivatives (12, 14, 15, 16, 18 and 25) was assessed on adult female specimens of H. contortus in an established assay ([Taki et al., 2020]). The compound was added in triplicate to the wells of a 24-well plate (cat. no. 3524; Corning, USA) at a concentration of 40 μM in 500 μL of RPMI* (RPMI supplemented with final concentrations of 2 mM L-glutamine, 100 IU/mL of penicillin, 100 μg/mL of streptomycin and 0.25 μg/mL of amphotericin B; Thermo Fisher Scientific, Scoresby, VIC, Australia). Two positive-control compounds, monepantel and moxidectin, and a negative control containing 1 % (v/v) DMSO only, were included in triplicates on the same plate. Three adult females were added to each of the triplicate wells containing either the test compound or the controls and placed in a CO2 incubator (10 % (v/v) CO2, 40 °C, >90 % relative humidity) for 1 day. A video recording (30 s) of each well was taken at 3 h, 6 h, 12 h and 24 h during the total incubation period to assess the reduction in worm motility, which was scored as 3 (“good”), 2 (“low”), 1 (“very low”) or 0 (“no movement”; cf. [Taki et al., 2020]). For each test or control compound, the motility scores for each of the triplicate wells were calculated, normalised with reference to the negative control (100 % motility) and recorded as a percentage.

The term IC50 denotes the point on the concentration scale where inhibition reaches its midpoint. In the case of `Cn1nccc1-c1ccc(C#Cc2ccccc2)cc1` [Compound 25], the “fold increased activity compared to UMW-9729, H. contortus larvae” value in the experiment with H. contortus xL3s (ratio of xL3 motility IC50 to parent UMW-9729) stood at 3 fold. In the experiment on H. contortus xL3s (xL3s, 90 h incubation (table title)), the “Maximum motility inhibition (MMI), H. contortus xL3s” value turned out to be 73%. The IC50 with H. contortus xL3s (xL3s, 90 h incubation (table title), three independent assays in triplicate, read-out: Worm motility IC50 ± SD, H. contortus xL3s) is 1.9 ± 0.14 µM; in the experiment with C. elegans young adults (read-out: Worm motility IC50 ± SD, C. elegans young adults), above 40 µM. Moreover, in the experiment with C. elegans young adults, the “Worm motility IC50 ± SD, C. elegans young adults” value was “inactive”. For the same compound, the “reduction of worm motility, adult females of H. contortus” value in experiment [1] (3 h time point), in experiment [1] (6 h time point) and in experiment [1] (12 h time point) was “did not display a reduction in motility” throughout.
